Test results: patent US9018258B2, “Substituted 1-benzylcycloalkylcarboxylic acids and the use thereof” (Bayer Intellectual Property GmbH, priority 2010, dated 2015)

Target: T1, Haem-free sGC (Rattus norvegicus, UniProt P20595)
T1 construct: made in house; host or cells: Sf9 insect cells (baculovirus)
Assay: Stimulation of recombinant soluble guanylate cyclase (sGC) in vitro, haem-free enzyme
Type: biochemical
Procedure: Investigations on the stimulation of recombinant soluble guanylate cyclase (sGC) by the compounds according to the invention with and without sodium nitroprusside, and with and without the haem-dependent sGC inhibitor 1H-1,2,4-oxadiazolo[4,3a]quinoxalin-1-one (ODQ), are carried out by the method described in detail in the following reference: M. Hoenicka, E. M. Becker, H. Apeler, T. Sirichoke, H. Schroeder, R. Gerzer and J.-P. Stasch, “Purified soluble guanylyl cyclase expressed in a baculovirus/Sf9 system: Stimulation by YC-1, nitric oxide, and carbon oxide”, J. Mol. Med. 77 (1999), 14-23. The haem-free guanylate cyclase is obtained by adding Tween 20 to the sample buffer (0.5% in the final concentration).
The activation of sGC by a test substance is reported as x-fold stimulation of the basal activity.

T1 sequence (P19686 whole entry partner): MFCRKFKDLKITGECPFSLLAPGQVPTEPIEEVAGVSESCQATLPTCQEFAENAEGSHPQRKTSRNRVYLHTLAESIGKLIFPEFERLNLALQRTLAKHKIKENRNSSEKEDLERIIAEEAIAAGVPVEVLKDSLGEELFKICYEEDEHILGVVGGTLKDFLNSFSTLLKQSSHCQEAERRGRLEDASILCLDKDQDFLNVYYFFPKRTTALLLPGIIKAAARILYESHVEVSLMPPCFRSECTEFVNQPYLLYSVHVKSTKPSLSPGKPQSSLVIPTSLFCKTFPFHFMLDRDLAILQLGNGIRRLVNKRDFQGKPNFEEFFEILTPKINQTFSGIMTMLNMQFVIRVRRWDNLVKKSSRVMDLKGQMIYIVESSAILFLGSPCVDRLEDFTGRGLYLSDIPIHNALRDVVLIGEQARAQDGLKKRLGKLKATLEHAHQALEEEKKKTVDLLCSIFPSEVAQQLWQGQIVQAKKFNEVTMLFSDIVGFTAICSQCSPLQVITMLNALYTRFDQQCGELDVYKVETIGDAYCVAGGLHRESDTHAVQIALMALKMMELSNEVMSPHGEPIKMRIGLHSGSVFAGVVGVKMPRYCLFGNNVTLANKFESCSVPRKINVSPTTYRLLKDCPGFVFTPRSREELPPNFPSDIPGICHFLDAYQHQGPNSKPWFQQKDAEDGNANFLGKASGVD
T1 sequence (P20595 whole entry): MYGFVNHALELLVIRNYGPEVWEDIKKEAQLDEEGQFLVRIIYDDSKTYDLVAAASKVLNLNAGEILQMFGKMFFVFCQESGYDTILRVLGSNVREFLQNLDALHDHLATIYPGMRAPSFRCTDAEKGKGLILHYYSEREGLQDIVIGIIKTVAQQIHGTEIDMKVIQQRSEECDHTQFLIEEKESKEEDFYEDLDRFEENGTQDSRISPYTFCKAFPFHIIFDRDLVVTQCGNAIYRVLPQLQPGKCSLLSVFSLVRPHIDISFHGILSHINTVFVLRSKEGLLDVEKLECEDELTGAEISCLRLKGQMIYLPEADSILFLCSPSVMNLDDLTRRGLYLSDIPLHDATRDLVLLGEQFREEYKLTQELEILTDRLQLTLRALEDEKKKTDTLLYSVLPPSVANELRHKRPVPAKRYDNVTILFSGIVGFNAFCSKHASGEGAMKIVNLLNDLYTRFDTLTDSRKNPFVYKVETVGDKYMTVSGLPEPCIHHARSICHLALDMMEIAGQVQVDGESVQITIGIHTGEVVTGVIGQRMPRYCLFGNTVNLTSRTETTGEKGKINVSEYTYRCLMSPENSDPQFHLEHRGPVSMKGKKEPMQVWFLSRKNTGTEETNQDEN

Stimulation (x-fold) of recombinant sGC, Basal (test substance 0.01 μM) [x-fold] | Stimulation (x-fold) of recombinant sGC, Basal (test substance 0.1 μM) [x-fold] | Stimulation (x-fold) of recombinant sGC, Basal (test substance 1.0 μM) [x-fold] | Stimulation (x-fold) of recombinant sGC, Basal (test substance 10 μM) [x-fold] | Stimulation (x-fold) of recombinant sGC, Basal (test substance 100 μM) [x-fold] | SMILES
2.6 ± 0.8 | 7.1 ± 2.4 | 27.2 ± 7.4 | 41.2 ± 9.8 | 39.0 ± 9.1 | C[C@H]([C@H](C(=O)Nc1cc(CC2(C(=O)O)CC2)ccc1Cl)c1ccc(Cl)cc1)C(F)(F)F [Example 50, (+)-1-(4-Chloro-3-{[(2S,3R)-2-(4-chlorophenyl)-4,4,4-trifluoro-3-methylbutanoyl]amino}benzyl)-cyclopropanecarboxylic acid]
2.0 ± 0.4 | 5.2 ± 0.8 | 14.9 ± 2.2 | 19.4 ± 2.8 |  | [2H]C([2H])([2H])OC(c1ccc(Cl)c(NC(=O)[C@H](c2ccc(Cl)cc2)[C@@H](C)C(F)(F)F)c1)C1(C(=O)O)CC1 (single isomer, unassigned; (+)) [Example 99]
